# Columns and labels:
# [1] = tested on: Rac1; experiment: Rac1 activation assay after PPF; format: cell-based, human; conditions: T98G cells, 5 μM PPF 1 hour, then 10% FBS
# Method: (§1) FIGS. 27A and 27B depict that PPF suppresses GBM cell invasion and Rac1 activation. FIG. 27A—T98G, GBM10, and GBM43 glioma cells were treated with 5 μM PPF and invasion was assayed over 24 hours utilizing a Matrigel® invasion assay, *p<0.05. FIG. 27B—T98G glioma cells were serum starved, pre-incubated with 5 μM PPF or vehicle for 1 hour, and then stimulated with 10% FBS for 2-10 mins. Cell lysates were harvested and equal concentrations of protein were assessed for Rac1 activation.
# (§2) Referring now to FIGS. 27A and 27B: The inventors next examined whether PPF inhibited TROY dependent glioma cell invasion. […] Briefly, 5.0×10^5 cells glioma cells were seeded in 100-mm diameter culture dishes and incubated overnight at 37° C. Subsequently, cells were serum starved for 16 hours at 37° C. Cells were then harvested, re-suspended in growth factor reduced Matrigel® (Becton Dickinson) (1.0×10^5 cells/50 μL), added in triplicates to collagen-coated transwell chambers, and allowed to invade through Matrigel® in presence of 10% FBS and/or 5 μM PPF. After incubation for 24 hours at 37° C. non-invaded cells were scrapped off the upper side of the membrane and cells invaded to the other side of the membrane were fixed with 4% paraformaldehyde (PFA) (Affymetrix) and stained with DAPI (Invitrogen). Nuclei of invaded cells were counted in five high power fields (HPF) with a 20× objective.
# [2] = tested on: NF-κB; experiment: Immunoblot of NF-κB activation after PPF; format: cell-based, human; conditions: T98G and GBM43 cells treated with PPF
# Method: FIGS. 26A, 26B, and 26C depict that PPF sensitizes GBM cells to TMZ and radiotherapy. FIG. 26A—A clonogenic assay was used to assess T98G and GBM43 cells survival after TMZ and radiation treatment. Cells were pre-treated with 5 μM PPF for 24 hours, and then either treated with 250 μM TMZ for 24 hours or exposed to 2 Gy radiation. Graph depicts the surviving fraction in the treated cells compared to vehicle (VC) treated or non-treated (NT) cells, **p<0.01. FIG. 26B—T98G glioma cells were treated with vehicle, PPF (5 μM) TMZ (250 μM) and PPF in combination with TMZ. TMZ-induced apoptosis was assayed by immunoblot analysis of cell lysates with an antibody to cleaved PARP. Immunoblotting for α-Tubulin was included as a loading control. FIG. 26C—T98G, GBM10, and GBM43 cells were treated with PPF ([…], and then immunoblotted to assess the activation of AKT and NF-κB. Immunoblotting for β-Actin is included as a loading control.
# Referring now to FIGS. 26A, 26B, and 26C: Knockdown of TROY expression with shRNA decreases TMZ resistance in GBM cells in vitro (See Reference 42). […] Following combination therapy, cells were trypsinized, counted, and plated in a 6-well culture dish at densities of 100, 250, and 500 cells per well in triplicate. Cells were incubated for 12 days then fixed, stained with 0.5% crystal violet solution, and counted manually by blinded observers. […]
# [3] = clinical trials for Alzheimer's disease and vascular dementia; cited from earlier work
# [4] = tested on: T98G, GBM10, and GBM43 cells; experiment: Cell proliferation by automated cell counting; format: cell-based, human; conditions: 5, 50, 500 μM PPF, up to 144 hours
# Method: FIG. 25A—T98G, GBM43, and GBM10 cells were incubated with increasing concentrations of PPF (0, 5, 50, and 500 After 0, 48, 96 and 144 hours of treatment, cell were trypsinized and counted using an automated cell counter. FIG. 25B—GBM43, GBM10, and T98G glioma cells were treated with increasing doses of PPF (0.5, 1, 5, 10, and 20 μM) in triplicate. The CellTiterGlo® (Promega) reagent was used to measure survival. Raw values were normalized on a plate-by-plate basis such that 100% cell viability was equivalent to the mean of vehicle wells and 0% cell viability was equivalent to the mean of the MG132 positive control. The normalized data was used to assess viability of glioma cells after PPF treatment.
# Referring now to FIGS. 25A and 25B: To determine if PPF influences glioma cell proliferation, the inventors treated T98G, GBM10, and GBM43 cells with increasing concentrations of PPF and evaluated cell proliferation over the course of 144 hours. Briefly, 1.25×10^5 cells were seeded (n=3) in 12-well plates in 1 mL of DMEM supplemented with 10% FBS and allowed to attach at 37° C. for 16 hrs. […] After 0, 48, 96 and 144 hours of treatment, the cells were trypsinized and counted using the automated cell counter. […] Subsequently, 100 μL of CellTiterGlo® reagent was added to each well and luminescence was measured using Envision Reader. […]
# [5] = tested on: T98G, GBM10, and GBM43 glioma cells; experiment: Matrigel invasion assay; format: cell-based, human; conditions: 5 μM PPF, 24 hours, 10% FBS
# Method: as §1, §2
structure (smiles),measurement,setting,value
"CCCn1cnc2c1c(=O)n(CCCCC(C)=O)c(=O)n2C [PPF, 3-methyl-1-(5-oxohexyl)-7-propyl-3,7-dihydro-1H-purine-2,6-dione]",Rac1 activation,[1],inhibited Rac1 activation
same,NF-κB phosphorylation,[2],effectively decreased
same,side effect profile,[3],minimal side effect profile
same,glioma cell proliferation,[4],did not affect the proliferation
same,glioma cell invasion,[5],significantly inhibited glioma cell invasion

# Reference: patent US10624895B2, “Methods of sensitizing a patient with glioma to a therapeutic agent by administering small hairpin RNA targeting PDZ-RHOGEF” (THE TRANSLATIONAL GENOMICS RESEARCH INSTITUTE, priority 2016, dated 2020)
